Earlier results, collected in PMC6260473 (Saudi Pharmaceutical Journal : SPJ, 2018).

System: human colorectal adenocarcinoma cell lined HT29
Conditions: read-out: IC50, cytotoxic effect, ref Nowak et al., 2014

Row | SMILES | IC50
1 | COc1ccc(Cn2cnc3c(cc(N4CCOCC4)c4ccccc43)c2=O)cc1 [3-(4-methoxybenzyl)-6-(morpholin-4-yl)benzo[h]quinazolin-4(3H)-one] | 4.12 µM
2 | N.N.[Cl][Pt][Cl] [cisplatin] | 8.47 µM
